Tests used:
Test in all cases: Test B preemergence/postemergence greenhouse plant response rating 0 to 10
cocklebur = type: in vivo, Xanthium pensylvanicum; settings: for Plant response rating, Cocklebur: 0 to 10 scale
Summary of the method: (§1)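 Test chemicals were sprayed onto freshly planted seed and, concurrently, onto young plants between the one and four leaf stage. After a twelve- to sixteen-day greenhouse period, each species was visually compared with untreated controls.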

sorghum = type: in vivo, Sorghum bicolor; settings: for Plant response rating, Sorghum: 0 to 10 scale
Summary of the method: as §1

wild oat = type: in vivo, Avena fatua; settings: for Plant response rating, Wild oat: 0 to 10 scale
Summary of the method: as §1

soybean = type: in vivo, Glycine max; settings: for Plant response rating, Soybean: 0 to 10 scale
Summary of the method: as §1

rice = type: in vivo, Oryza sativa; settings: for Plant response rating, Rice: 0 to 10 scale
Summary of the method: as §1

sugar beet = type: in vivo, Beta vulgaris; settings: for Plant response rating, Sugar beet: 0 to 10 scale
Summary of the method: as §1

giant foxtail = type: in vivo, Setaria faberii; settings: for Plant response rating, Giant foxtail: 0 to 10 scale
Summary of the method: as §1

purple nutsedge = type: in vivo, Cyperus rotundus; settings: for Plant response rating, Nutsedge: 0 to 10 scale
Summary of the method: as §1

corn = type: in vivo, Zea mays; settings: for Plant response rating, Corn: 0 to 10 scale
Summary of the method: as §1

rape = type: in vivo, Brassica napus; settings: for Plant response rating, Rape: 0 to 10 scale
Summary of the method: as §1

wheat = type: in vivo, Triticum aestivum; settings: for Plant response rating, Wheat: 0 to 10 scale
Summary of the method: as §1

barnyardgrass = type: in vivo, Echinochloa crus-galli; settings: for Plant response rating, Barnyardgrass: 0 to 10 scale
Summary of the method: as §1

wild buckwheat = type: in vivo, Polygonum convolvulus; settings: for Plant response rating, Wild buckwheat: 0 to 10 scale
Summary of the method: as §1

morningglory = type: in vivo, Ipomoea hederacea; settings: for Plant response rating, Morningglory: 0 to 10 scale
Summary of the method: as §1

cotton = type: in vivo, Gossypium hirsutum; settings: for Plant response rating, Cotton: 0 to 10 scale
Summary of the method: as §1

bedstraw = type: in vivo, Galium aparine; settings: for Plant response rating, Bedstraw: 0 to 10 scale
Summary of the method: as §1

blackgrass = type: in vivo, Alopecurus myosuroides; settings: for Plant response rating, Blackgrass: 0 to 10 scale
Summary of the method: as §1

velvetleaf = type: in vivo, Abutilon theophrasti; settings: for Plant response rating, Velvetleaf: 0 to 10 scale
Summary of the method: as §1

crabgrass = type: in vivo, Digitaria spp.; settings: for Plant response rating, Crabgrass: 0 to 10 scale
Summary of the method: as §1

cheatgrass = type: in vivo, Bromus secalinus; settings: for Plant response rating, Cheatgrass: POSTEMERGENCE, 0 to 10 scale
Summary of the method: as §1

lambsquarters = type: in vivo, Chenopodium album; settings: for Plant response rating, Lambsquarter: 0 to 10 scale
Summary of the method: as §1

chickweed = type: in vivo, Stellaria media; settings: for Plant response rating, Chickweed: 0 to 10 scale
Summary of the method: as §1

barley = type: in vivo, Hordeum vulgare; settings: for Plant response rating, Barley: 0 to 10 scale
Summary of the method: as §1

Oc1cc(-c2nn3c(c2Cl)CCCC3)c(Cl)cc1Cl [Compound 68]
Plant response rating, Cocklebur (cocklebur; POSTEMERGENCE, Rate 50 g/ha): 6 | Plant response rating, Cocklebur (cocklebur; PREEMERGENCE, Rate 50 g/ha): 0 | Plant response rating (0 to 10 scale), Cocklebur (cocklebur; PREEMERGENCE, Rate 200 g/ha): 0 | Plant response rating, Cocklebur (cocklebur; Rate 200 g/ha, POSTEMERGENCE): 7 | Plant response rating, Sorghum (sorghum; POSTEMERGENCE, Rate 50 g/ha): 3 | Plant response rating, Sorghum (sorghum; PREEMERGENCE, Rate 50 g/ha): 0 | Plant response rating (0 to 10 scale), Sorghum (sorghum; PREEMERGENCE, Rate 200 g/ha): 0 | Plant response rating, Sorghum (sorghum; Rate 200 g/ha, POSTEMERGENCE): 4 | Plant response rating, Wild oat (wild oat; POSTEMERGENCE, Rate 50 g/ha): 2 | Plant response rating, Wild oat (wild oat; PREEMERGENCE, Rate 50 g/ha): 0 | Plant response rating (0 to 10 scale), Wild oat (wild oat; PREEMERGENCE, Rate 200 g/ha): 0 | Plant response rating, Wild oat (wild oat; Rate 200 g/ha, POSTEMERGENCE): 3 | Plant response rating, Soybean (soybean; POSTEMERGENCE, Rate 50 g/ha): 4 | Plant response rating, Soybean (soybean; PREEMERGENCE, Rate 50 g/ha): 0 | Plant response rating (0 to 10 scale), Soybean (soybean; PREEMERGENCE, Rate 200 g/ha): 0 | Plant response rating, Soybean (soybean; Rate 200 g/ha, POSTEMERGENCE): 6 | Plant response rating, Rice (rice; POSTEMERGENCE, Rate 50 g/ha): 5 | Plant response rating, Rice (rice; PREEMERGENCE, Rate 50 g/ha): 0 | Plant response rating (0 to 10 scale), Rice (rice; PREEMERGENCE, Rate 200 g/ha): 0 | Plant response rating, Rice (rice; Rate 200 g/ha, POSTEMERGENCE): 5 | Plant response rating, Sugar beet (sugar beet; POSTEMERGENCE, Rate 50 g/ha): 9 | Plant response rating, Sugar beet (sugar beet; PREEMERGENCE, Rate 50 g/ha): 0 | Plant response rating (0 to 10 scale), Sugar beet (sugar beet; PREEMERGENCE, Rate 200 g/ha): 9 | Plant response rating, Sugar beet (sugar beet; Rate 200 g/ha, POSTEMERGENCE): 10 | Plant response rating, Giant foxtail (giant foxtail; POSTEMERGENCE, Rate 50 g/ha): 4 | Plant response rating, Giant foxtail (giant foxtail; PREEMERGENCE, Rate 50 g/ha): 0 | Plant response rating (0 to 10 scale), Giant foxtail (giant foxtail; PREEMERGENCE, Rate 200 g/ha): 0 | Plant response rating, Giant foxtail (giant foxtail; Rate 200 g/ha, POSTEMERGENCE): 4 | Plant response rating, Nutsedge (purple nutsedge; POSTEMERGENCE, Rate 50 g/ha): 2 | Plant response rating, Nutsedge (purple nutsedge; PREEMERGENCE, Rate 50 g/ha): 0 | Plant response rating (0 to 10 scale), Nutsedge (purple nutsedge; PREEMERGENCE, Rate 200 g/ha): 0 | Plant response rating, Nutsedge (purple nutsedge; Rate 200 g/ha, POSTEMERGENCE): 3 | Plant response rating, Corn (corn; POSTEMERGENCE, Rate 50 g/ha): 3 | Plant response rating, Corn (corn; PREEMERGENCE, Rate 50 g/ha): 0 | Plant response rating (0 to 10 scale), Corn (corn; PREEMERGENCE, Rate 200 g/ha): 0 | Plant response rating, Corn (corn; Rate 200 g/ha, POSTEMERGENCE): 4 | Plant response rating, Rape (rape; POSTEMERGENCE, Rate 50 g/ha): 3 | Plant response rating, Rape (rape; PREEMERGENCE, Rate 50 g/ha): 0 | Plant response rating (0 to 10 scale), Rape (rape; PREEMERGENCE, Rate 200 g/ha): 0 | Plant response rating, Rape (rape; Rate 200 g/ha, POSTEMERGENCE): 5 | Plant response rating, Wheat (wheat; POSTEMERGENCE, Rate 50 g/ha): 3 | Plant response rating, Wheat (wheat; PREEMERGENCE, Rate 50 g/ha): 0 | Plant response rating (0 to 10 scale), Wheat (wheat; PREEMERGENCE, Rate 200 g/ha): 3 | Plant response rating, Wheat (wheat; Rate 200 g/ha, POSTEMERGENCE): 4 | Plant response rating, Barnyardgrass (barnyardgrass; POSTEMERGENCE, Rate 50 g/ha): 2 | Plant response rating, Barnyardgrass (barnyardgrass; PREEMERGENCE, Rate 50 g/ha): 0 | Plant response rating (0 to 10 scale), Barnyardgrass (barnyardgrass; PREEMERGENCE, Rate 200 g/ha): 0 | Plant response rating, Barnyardgrass (barnyardgrass; Rate 200 g/ha, POSTEMERGENCE): 3 | Plant response rating, Wild buckwheat (wild buckwheat; POSTEMERGENCE, Rate 50 g/ha): 10 | Plant response rating, Wild buckwheat (wild buckwheat; PREEMERGENCE, Rate 50 g/ha): 0 | Plant response rating (0 to 10 scale), Wild buckwheat (wild buckwheat; PREEMERGENCE, Rate 200 g/ha): 4 | Plant response rating, Wild buckwheat (wild buckwheat; Rate 200 g/ha, POSTEMERGENCE): 10 | Plant response rating, Morningglory (morningglory; POSTEMERGENCE, Rate 50 g/ha): 8 | Plant response rating, Morningglory (morningglory; PREEMERGENCE, Rate 50 g/ha): 0 | Plant response rating (0 to 10 scale), Morningglory (morningglory; PREEMERGENCE, Rate 200 g/ha): 0 | Plant response rating, Morningglory (morningglory; Rate 200 g/ha, POSTEMERGENCE): 8 | Plant response rating, Cotton (cotton; POSTEMERGENCE, Rate 50 g/ha): 10 | Plant response rating, Cotton (cotton; PREEMERGENCE, Rate 50 g/ha): 0 | Plant response rating (0 to 10 scale), Cotton (cotton; PREEMERGENCE, Rate 200 g/ha): 0 | Plant response rating, Cotton (cotton; Rate 200 g/ha, POSTEMERGENCE): 10 | Plant response rating, Bedstraw (bedstraw; POSTEMERGENCE, Rate 50 g/ha): 7 | Plant response rating, Bedstraw (bedstraw; PREEMERGENCE, Rate 50 g/ha): 0 | Plant response rating (0 to 10 scale), Bedstraw (bedstraw; PREEMERGENCE, Rate 200 g/ha): 2 | Plant response rating, Bedstraw (bedstraw; Rate 200 g/ha, POSTEMERGENCE): 9 | Plant response rating, Blackgrass (blackgrass; POSTEMERGENCE, Rate 50 g/ha): 2 | Plant response rating, Blackgrass (blackgrass; PREEMERGENCE, Rate 50 g/ha): 2 | Plant response rating (0 to 10 scale), Blackgrass (blackgrass; PREEMERGENCE, Rate 200 g/ha): 8 | Plant response rating, Blackgrass (blackgrass; Rate 200 g/ha, POSTEMERGENCE): 3 | Plant response rating, Velvetleaf (velvetleaf; POSTEMERGENCE, Rate 50 g/ha): 8 | Plant response rating, Velvetleaf (velvetleaf; PREEMERGENCE, Rate 50 g/ha): 0 | Plant response rating (0 to 10 scale), Velvetleaf (velvetleaf; PREEMERGENCE, Rate 200 g/ha): 9 | Plant response rating, Velvetleaf (velvetleaf; Rate 200 g/ha, POSTEMERGENCE): 10 | Plant response rating, Crabgrass (crabgrass; POSTEMERGENCE, Rate 50 g/ha): 3 | Plant response rating, Crabgrass (crabgrass; PREEMERGENCE, Rate 50 g/ha): 0 | Plant response rating (0 to 10 scale), Crabgrass (crabgrass; PREEMERGENCE, Rate 200 g/ha): 2 | Plant response rating, Crabgrass (crabgrass; Rate 200 g/ha, POSTEMERGENCE): 4 | Plant response rating, Cheatgrass (cheatgrass; Rate 50 g/ha): 2 | Plant response rating (0 to 10 scale), Cheatgrass (cheatgrass; PREEMERGENCE, Rate 200 g/ha): 3 | Plant response rating, Cheatgrass (cheatgrass; Rate 200 g/ha): 3 | Plant response rating, Lambsquarter (lambsquarters; POSTEMERGENCE, Rate 50 g/ha): 10 | Plant response rating, Lambsquarter (lambsquarters; PREEMERGENCE, Rate 50 g/ha): 6 | Plant response rating (0 to 10 scale), Lambsquarter (lambsquarters; PREEMERGENCE, Rate 200 g/ha): 0 | Plant response rating, Lambsquarter (lambsquarters; Rate 200 g/ha, POSTEMERGENCE): 10 | Plant response rating, Chickweed (chickweed; POSTEMERGENCE, Rate 50 g/ha): 0 | Plant response rating, Chickweed (chickweed; PREEMERGENCE, Rate 50 g/ha): 2 | Plant response rating (0 to 10 scale), Chickweed (chickweed; PREEMERGENCE, Rate 200 g/ha): 2 | Plant response rating, Chickweed (chickweed; Rate 200 g/ha, POSTEMERGENCE): 1 | Plant response rating, Barley (barley; POSTEMERGENCE, Rate 50 g/ha): 3 | Plant response rating, Barley (barley; PREEMERGENCE, Rate 50 g/ha): 0 | Plant response rating (0 to 10 scale), Barley (barley; PREEMERGENCE, Rate 200 g/ha): 0 | Plant response rating, Barley (barley; Rate 200 g/ha, POSTEMERGENCE): 3

Reference: patent US6358885B1, “Substituted phenylheterocyclic herbicides” (Mississippi State University, priority 1992, dated 2002)
